Measurements reported in patent US12043632B2, “6-heteroaryloxy benzimidazoles and azabenzimidazoles as JAK2 inhibitors” (Ajax Therapeutics, Inc., priority 2020, dated 2024).

These compounds were tested against T1, JAK2 (JH1domain-catalytic, Y1007F,Y1008F) kinase (Homo sapiens, UniProt O60674, Y1007F/Y1008F) (assay: JAK2 JH1 Domain Binding Assay). Settings: qPCR readout.
T1 construct: JAK2 (JH1domain-catalytic, Y1007F,Y1008F) kinase was expressed as N-terminal fusion; made in house; host or cells: transiently transfected HEK293 cells
T1 sequence (O60674 849-1124 Y1007F/Y1008F limits assumed): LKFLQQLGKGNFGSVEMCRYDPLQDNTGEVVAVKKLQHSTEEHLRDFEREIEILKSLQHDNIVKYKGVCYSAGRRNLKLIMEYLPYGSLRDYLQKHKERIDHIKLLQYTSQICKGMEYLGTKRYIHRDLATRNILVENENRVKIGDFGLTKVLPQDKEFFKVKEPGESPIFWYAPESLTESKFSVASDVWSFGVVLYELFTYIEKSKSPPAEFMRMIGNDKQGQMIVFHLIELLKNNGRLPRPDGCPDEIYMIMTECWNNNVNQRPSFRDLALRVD
In the case of `CNc1nccn2ncc(Oc3cnc4nc(Nc5cc(N6CCN(C)CC6)cc(C(F)(F)F)c5)n(C)c4c3Cl)c12` [Example I-220, 7-chloro-1-methyl-6-((4-(methylamino)pyrazolo[1,5-a]pyrazin-3-yl)oxy)-N-(3-(4-methylpiperazin-1-yl)-5-(trifluoromethyl)phenyl)-1H-imidazo[4,5-b]pyridin-2-amine], the Kd is reported as 0.01 to 0.05 µM.
Compound `Cn1c(Nc2cc(C(C)(C)C)n(C3COCC3O)n2)nc2ncc(Oc3cnn4ccncc34)c(Cl)c21` (single isomer, unassigned) [Example I-47] has a Kd of less than 0.01 µM.
In the case of `Cn1c(Nc2cc(C(C)(C)C)n([C@H]3CCO[C@@H]3CO)n2)nc2ncc(Oc3cnn4ccncc34)c(Cl)c21` [Example I-66, ((2S,3S)-3-(5-(tert-butyl)-3-((7-chloro-1-methyl-6-(pyrazolo[1,5-a]pyrazin-3-yloxy)-1H-imidazo[4,5-b]pyridin-2-yl)amino)-1H-pyrazol-1-yl)tetrahydrofuran-2-yl)methanol], the Kd is reported as less than 0.01 µM.
With `Cn1c(Nc2ccc(CN3CCN(CCO)CC3)c(C(F)(F)F)c2)nc2ncc(Oc3cnn4ccncc34)c(Cl)c21` [Example I-207, 2-(4-(4-((7-chloro-1-methyl-6-(pyrazolo[1,5-a]pyrazin-3-yloxy)-1H-imidazo[4,5-b]pyridin-2-yl)amino)-2-(trifluoromethyl)benzyl)piperazin-1-yl)ethan-1-ol] the Kd was less than 0.01 µM.
`C[C@H](CO)Cn1cc(C2CC2)cc(Nc2nc3ncc(Oc4cnn5ccncc45)c(Cl)c3n2C)c1=O` (single isomer, unassigned) [Example I-81-a] was tested, and the Kd was less than 0.01 µM.
`Cn1cc(C(F)(F)F)cc(Nc2nc3ncc(Oc4cnn5ccccc45)c(C#N)c3n2C)c1=O` [Example I-212, 1-methyl-2-((1-methyl-2-oxo-5-(trifluoromethyl)-1,2-dihydropyridin-3-yl)amino)-6-(pyrazolo[1,5-a]pyridin-3-yloxy)-1H-imidazo[4,5-b]pyridine-7-carbonitrile] gave a Kd of less than 0.01 µM.
With `Cn1cc(C(F)(F)F)cc(Nc2nc3ncc(Oc4cnn5ccnc(OCCN6CCOCC6)c45)c(Cl)c3n2C)c1=O` [Example I-127, 3-((7-chloro-1-methyl-6-((4-(2-morpholinoethoxy)pyrazolo[1,5-a]pyrazin-3-yl)oxy)-1H-imidazo[4,5-b]pyridin-2-yl)amino)-1-methyl-5-(trifluoromethyl)pyridin-2(1H)-one] the Kd was 0.01 to 0.05 µM.
`COc1c(Oc2cnn3ccncc23)cnc2nc(Nc3cc(C4CC4)cn([C@H]4CCCOC4)c3=O)n(C)c12` (single isomer, unassigned) [Example I-72-b] showed a Kd of less than 0.01 µM.
`COCCN1CC[C@H](n2nc(Nc3nc4ncc(Oc5cnn6ccncc56)c(C(F)F)c4n3C)cc2C(C)(C)C)C1` [Example I-51, (S)—N-(5-(tert-butyl)-1-(1-(2-methoxyethyl)pyrrolidin-3-yl)-1H-pyrazol-3-yl)-7-(difluoromethyl)-1-methyl-6-(pyrazolo[1,5-a]pyrazin-3-yloxy)-1H-imidazo[4,5-b]pyridin-2-amine] gave a Kd of 0.01 to 0.05 µM.
In the case of `Cn1c(Nc2cc(C(C)(C)C)n([C@@H]3CCC[C@@H]3O)n2)nc2ncc(Oc3cnn4ccncc34)c(Cl)c21` (single isomer, unassigned) [Example I-60-b], the Kd is reported as less than 0.01 µM.
With `CNc1cn2ncc(Oc3cnc4nc(Nc5cc(OC[C@H]6CCCN6C)cc(C(F)(F)F)c5)n(C)c4c3Cl)c2cn1` [Example I-332, (R)-7-chloro-1-methyl-6-((6-(methylamino)pyrazolo[1,5-a]pyrazin-3-yl)oxy)-N-(3-((1-methylpyrrolidin-2-yl)methoxy)-5-(trifluoromethyl)phenyl)-1H-imidazo[4,5-b]pyridin-2-amine] the Kd was less than 0.01 µM.
In the case of `CCn1c(C(C)(C)C)ncc(Nc2nc3ncc(Oc4cnn5ccnc(NC)c45)c(Cl)c3n2C)c1=O` [Example I-230, 2-(tert-butyl)-5-((7-chloro-1-methyl-6-((4-(methylamino)pyrazolo[1,5-a]pyrazin-3-yl)oxy)-1H-imidazo[4,5-b]pyridin-2-yl)amino)-3-ethylpyrimidin-4(3H)-one], the Kd is reported as 0.05 to 1 µM.
`CNc1nccn2ncc(Oc3cnc4nc(Nc5cc(C(F)(F)F)n([C@H]6COC[C@@H]6O)n5)n(C)c4c3Cl)c12` (single isomer, unassigned) [Example I-279-a] was tested, and the Kd was less than 0.01 µM.
With `CNc1nccn2ncc(Oc3cnc4nc(Nc5cc(C(F)(F)F)c[nH]c5=O)n(C)c4c3Cl)c12` [Example I-223, 3-((7-chloro-1-methyl-6-((4-(methylamino)pyrazolo[1,5-a]pyrazin-3-yl)oxy)-1H-imidazo[4,5-b]pyridin-2-yl)amino)-5-(trifluoromethyl)pyridin-2(1H)-one] the Kd was less than 0.01 µM.
For `CN1CC[C@H](n2nc(Nc3nc4ncc(Oc5cnc6scnc6c5)c(Cl)c4n3C)cc2C(C)(C)C)C1` [Example I-28, (S)—N-(5-(tert-butyl)-1-(1-methylpyrrolidin-3-yl)-1H-pyrazol-3-yl)-7-chloro-1-methyl-6-(thiazolo[5,4-b]pyridin-6-yloxy)-1H-imidazo[4,5-b]pyridin-2-amine], the Kd was 0.01 to 0.05 µM.
`Cn1c(Nc2cc(C(F)(F)F)cn(CCO)c2=O)nc2ncc(Oc3cnn4ccc(N5CCOCC5)cc34)c(Cl)c21` [Example I-183, 3-((7-chloro-1-methyl-6-((5-morpholinopyrazolo[1,5-a]pyridin-3-yl)oxy)-1H-imidazo[4,5-b]pyridin-2-yl)amino)-1-(2-hydroxyethyl)-5-(trifluoromethyl)pyridin-2(1H)-one] gave a Kd of less than 0.01 µM.
With `Cn1cc(C(F)(F)F)cc(Nc2nc3ncc(Oc4cnc5[nH]ncc5c4)c(C#N)c3n2C)c1=O` [Example I-260, 6-((1H-pyrazolo[3,4-b]pyridin-5-yl)oxy)-1-methyl-2-((1-methyl-2-oxo-5-(trifluoromethyl)-1,2-dihydropyridin-3-yl)amino)-1H-imidazo[4,5-b]pyridine-7-carbonitrile] the Kd was less than 0.01 µM.
Work on `Cn1c(Nc2cc(C(C)(C)C)n([C@H]3CCOC3)n2)nc2ncc(Oc3cnn4ccnc4c3)c(Cl)c21` [Example I-13, (S)—N-(5-(tert-butyl)-1-(tetrahydrofuran-3-yl)-1H-pyrazol-3-yl)-7-chloro-6-(imidazo[1,2-b]pyridazin-7-yloxy)-1-methyl-1H-imidazo[4,5-b]pyridin-2-amine] yielded a Kd of 0.01 to 0.05 µM.
For `Cn1cc(C(F)(F)F)cc(Nc2nc3ncc(Oc4cnn5cc(OCCN6CCOCC6)ncc45)c(C#N)c3n2C)c1=O` [Example I-377, 1-methyl-2-((1-methyl-2-oxo-5-(trifluoromethyl)-1,2-dihydropyridin-3-yl)amino)-6-((6-(2-morpholinoethoxy)pyrazolo[1,5-a]pyrazin-3-yl)oxy)-1H-imidazo[4,5-b]pyridine-7-carbonitrile], the Kd was less than 0.01 µM.
Compound `CNc1cn2ncc(Oc3cnc4nc(Nc5cc(C6CC6)nn(C)c5=O)n(C)c4c3Cl)c2cn1` [Example I-317, 4-((7-chloro-1-methyl-6-((6-(methylamino)pyrazolo[1,5-a]pyrazin-3-yl)oxy)-1H-imidazo[4,5-b]pyridin-2-yl)amino)-6-cyclopropyl-2-methylpyridazin-3(2H)-one] has a Kd of 0.01 to 0.05 µM.
In the case of `CNc1nccn2ncc(Oc3cnc4nc(Nc5ccc(CN6CCC(F)(F)C6)c(C(F)(F)F)c5)n(C)c4c3Cl)c12` [Example I-184], the Kd is reported as 0.05 to 1 µM.
`Cn1c(Nc2cnc(N3CCC3)c(C(F)(F)F)c2)nc2ncc(Oc3cnn4ccncc34)c(Cl)c21` [Example I-203, N-(6-(azetidin-1-yl)-5-(trifluoromethyl)pyridin-3-yl)-7-chloro-1-methyl-6-(pyrazolo[1,5-a]pyrazin-3-yloxy)-1H-imidazo[4,5-b]pyridin-2-amine] gave a Kd of 0.01 to 0.05 µM.
Compound `Cn1c(Nc2ccc(CN3CCCOCC3)c(C(F)(F)F)c2)nc2ncc(Oc3cnn4ccncc34)c(Cl)c21` [Example I-298, N-(4-((1,4-oxazepan-4-yl)methyl)-3-(trifluoromethyl)phenyl)-7-chloro-1-methyl-6-(pyrazolo[1,5-a]pyrazin-3-yloxy)-1H-imidazo[4,5-b]pyridin-2-amine] has a Kd of less than 0.01 µM.
`CNc1nccn2ncc(Oc3cnc4nc(Nc5cc(C(F)(F)F)cn(C)c5=O)n(C)c4c3)c12` [Example I-221, 1-methyl-3-((1-methyl-6-((4-(methylamino)pyrazolo[1,5-a]pyrazin-3-yl)oxy)-1H-imidazo[4,5-b]pyridin-2-yl)amino)-5-(trifluoromethyl)pyridin-2(1H)-one] gave a Kd of 0.01 to 0.05 µM.
For `CN1C[C@@H](F)[C@H](n2nc(Nc3nc4ncc(Oc5cnn6ccncc56)c(Cl)c4n3C)cc2C(C)(C)C)C1` (single isomer, unassigned) [Example I-267-a], the Kd was 0.01 to 0.05 µM.
In the case of `Cn1cc(C2CC2)cc(Nc2nc3ncc(Oc4cnn5ccnc(OCCN6CCOCC6)c45)c(Cl)c3n2C)c1=O` [Example I-136, 3-((7-chloro-1-methyl-6-((4-(2-morpholinoethoxy)pyrazolo[1,5-a]pyrazin-3-yl)oxy)-1H-imidazo[4,5-b]pyridin-2-yl)amino)-5-cyclopropyl-1-methylpyridin-2(1H)-one], the Kd is reported as 0.01 to 0.05 µM.
In the case of `CNc1cn2ncc(Oc3cnc4nc(Nc5cc(C(F)(F)F)cn([C@H]6CCCOC6)c5=O)n(C)c4c3Cl)c2cn1` (single isomer, unassigned) [Example I-352-a], the Kd is reported as 0.01 to 0.05 µM.
Compound `Cc1n[nH]c2ncc(Oc3cnc4nc(Nc5cc(C(F)(F)F)cn(C)c5=O)n(C)c4c3C#N)cc12` [Example I-341, 1-methyl-6-((3-methyl-1H-pyrazolo[3,4-b]pyridin-5-yl)oxy)-2-((1-methyl-2-oxo-5-(trifluoromethyl)-1,2-dihydropyridin-3-yl)amino)-1H-imidazo[4,5-b]pyridine-7-carbonitrile] has a Kd of less than 0.01 µM.
For `CNc1cn2ncc(Oc3cnc4nc(Nc5cc(C(F)(F)F)cn(C)c5=O)n(C)c4c3)c2cn1` [Example I-404, 1-methyl-3-((1-methyl-6-((6-(methylamino)pyrazolo[1,5-a]pyrazin-3-yl)oxy)-1H-imidazo[4,5-b]pyridin-2-yl)amino)-5-(trifluoromethyl)pyridin-2(1H)-one], the Kd was 0.01 to 0.05 µM.
`CNc1nccn2ncc(Oc3cnc4nc(Nc5cc(C6CC6)nn(C)c5=O)n(C)c4c3Cl)c12` [Example I-199, 4-((7-chloro-1-methyl-6-((4-(methylamino)pyrazolo[1,5-a]pyrazin-3-yl)oxy)-1H-imidazo[4,5-b]pyridin-2-yl)amino)-6-cyclopropyl-2-methylpyridazin-3(2H)-one] was tested, and the Kd was less than 0.01 µM.
